Measurements as given in ChEMBL document CHEMBL5614374, “Novel carbazole-oxadiazole derivatives as anti-α-glucosidase and anti-α-amylase agents: Design, synthesis, molecular docking, and biological evaluation” (Eur J Med Chem, 2024).
One block for each compound: values may come before it. Active and inactive are the calls of the source. No cut-off for these calls is given here.

What was measured:
[1] = biological target: T1, Alpha-glucosidase (Saccharomyces cerevisiae S288c) (UniProt P53341+P38158+P07265); test: Inhibition of alpha-glucosidase (unknown origin) assessed as effect on secondary structure by measuring beta-sheet content at 30 uM by CD spectra (reference value: 18.1 %); assay type: protein assay; design: scale not given: the % may be the effect or the level left
[2] = biological target: T1, Alpha-glucosidase (Saccharomyces cerevisiae S288c); test: Inhibition of alpha-glucosidase (unknown origin) assessed as effect on secondary structure by measuring random coil content at 10 uM by CD spectra (reference value: 33.1 %); assay type: protein assay; design: scale not given: the % may be the effect or the level left; details: Homo sapiens
[3] = biological target: T1, Alpha-glucosidase (Saccharomyces cerevisiae S288c); test: Inhibition of alpha-glucosidase (unknown origin) assessed as increase in enzyme particle size at 1 uM incubated for 15 mins by AFM imaging analysis; assay type: protein assay
[4] = biological target: T1, Alpha-glucosidase (Saccharomyces cerevisiae S288c); test: Inhibition of alpha-glucosidase (unknown origin) assessed as effect on secondary structure by measuring beta-sheet content at 20 uM by CD spectra (reference value: 18.1 %); assay type: protein assay; design: scale not given: the % may be the effect or the level left
[5] = biological target: T2, Alpha-amylase (Sus scrofa domesticus, UniProt Q7M328); test: Inhibition of hog pancreatic alpha-amylase using soluble starch as substrate preincubated for 10 mins followed by substrate addition and measured after 15 mins by absorbance based analysis
T2 sequence (Q7M328 whole entry): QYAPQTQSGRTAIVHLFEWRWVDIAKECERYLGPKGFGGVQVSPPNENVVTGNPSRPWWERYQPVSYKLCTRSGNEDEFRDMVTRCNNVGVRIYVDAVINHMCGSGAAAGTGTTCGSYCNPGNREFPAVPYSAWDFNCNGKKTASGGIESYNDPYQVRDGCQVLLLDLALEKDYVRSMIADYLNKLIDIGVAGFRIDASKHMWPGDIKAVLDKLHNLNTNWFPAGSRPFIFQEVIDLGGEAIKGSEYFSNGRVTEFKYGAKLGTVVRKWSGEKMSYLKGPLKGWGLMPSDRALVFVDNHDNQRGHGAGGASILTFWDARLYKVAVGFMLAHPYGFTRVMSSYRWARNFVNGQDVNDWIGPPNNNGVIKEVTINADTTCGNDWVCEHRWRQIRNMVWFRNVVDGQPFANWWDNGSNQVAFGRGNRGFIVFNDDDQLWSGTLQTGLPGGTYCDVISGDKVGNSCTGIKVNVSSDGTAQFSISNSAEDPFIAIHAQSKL

[6] = biological target: T1, Alpha-glucosidase (Saccharomyces cerevisiae S288c); test: Inhibition of alpha-glucosidase (unknown origin) assessed as increase in enzyme particle thickness at 1 uM incubated for 15 mins by AFM imaging analysis; assay type: protein assay
[7] = biological target: T1, Alpha-glucosidase (Saccharomyces cerevisiae S288c); test: Inhibition of alpha-glucosidase (unknown origin) assessed as effect on secondary structure by measuring random coil content at 5 uM by CD spectra (reference value: 33.1 %); assay type: protein assay; design: scale not given: the % may be the effect or the level left; details: Homo sapiens
[8] = biological target: T3, Alpha-glucosidase (Saccharomyces cerevisiae S288c, UniProt P53341+P38158+P07265); test: Inhibition of Saccharomyces cerevisiae alpha-glucosidase using p-nitrophenyl-alpha-D-glucopyranoside as substrate assessed as inhibition constant of enzyme-substrate complex incubated for 7 mins by spectrophotometer based Lineweaver-Burk plot analysis; assay type: protein assay
[9] = biological target: T1, Alpha-glucosidase (Saccharomyces cerevisiae S288c); test: Inhibition of alpha-glucosidase (unknown origin) assessed as effect on secondary structure by measuring beta-sheet content at 10 uM by CD spectra (reference value: 18.1 %); assay type: protein assay; design: scale not given: the % may be the effect or the level left
[10] = biological target: T1, Alpha-glucosidase (Saccharomyces cerevisiae S288c); test: Inhibition of alpha-glucosidase (unknown origin) assessed as effect on secondary structure by measuring reduction in alpha-helix content at 10 uM by CD spectra (reference value: 32.1 %); assay type: protein assay; design: scale not given: the % may be the effect or the level left; details: Homo sapiens
[11] = biological target: T1, Alpha-glucosidase (Saccharomyces cerevisiae S288c); test: Mixed-type inhibition of Saccharomyces cerevisiae alpha-glucosidase using p-nitrophenyl-alpha-D-glucopyranoside as substrate assessed as decrease in Km and Vmax upto 20 uM incubated for 7 mins by spectrophotometer based Lineweaver-Burk plot analysis; assay type: protein assay
[12] = biological target: T1, Alpha-glucosidase (Saccharomyces cerevisiae S288c); test: Inhibition of alpha-glucosidase (unknown origin) assessed as effect on secondary structure by measuring beta-turn content at 10 uM by CD spectra (reference value: 17.1 %); assay type: protein assay; design: scale not given: the % may be the effect or the level left
[13] = biological target: T3, Alpha-glucosidase; test: Inhibition of Saccharomyces cerevisiae alpha-glucosidase using p-nitrophenyl-alpha-D-glucopyranoside as substrate preincubated for 0.25 hrs followed by substrate addition and measured after 0.5 hrs by spectrophotometric analysis; assay type: protein assay
[14] = biological target: T1, Alpha-glucosidase (Saccharomyces cerevisiae S288c); test: Inhibition of alpha-glucosidase (unknown origin) assessed as effect on secondary structure by measuring beta-turn content at 20 uM by CD spectra (reference value: 17.1 %); assay type: protein assay; design: scale not given: the % may be the effect or the level left
[15] = biological target: T1, Alpha-glucosidase (Saccharomyces cerevisiae S288c); test: Inhibition of alpha-glucosidase (unknown origin) assessed as effect on secondary structure by measuring reduction in alpha-helix content at 30 uM by CD spectra (reference value: 32.1 %); assay type: protein assay; design: scale not given: the % may be the effect or the level left; details: Homo sapiens
[16] = biological target: T1, Alpha-glucosidase (Saccharomyces cerevisiae S288c); test: Inhibition of alpha-glucosidase (unknown origin) assessed as effect on secondary structure by measuring random coil content at 20 uM by CD spectra (reference value: 33.1 %); assay type: protein assay; design: scale not given: the % may be the effect or the level left
[17] = Cytotoxicity against HEK293 cells incubated for 1 day by MTT assay; assay type: toxicity, cell-based; details: human
[18] = test system: Mus musculus; test: Reduction in blood glucose concentration in male Kunming mouse assessed as decrease in AUC at 20 mg/kg, IG preadministered for 40 mins followed by saccharose addition and measured after 150 mins by sucrose loading test relative to control; assay type: functional; design: scale not given: the % may be the effect or the level left; details: time 190 min, 3.167 h
[19] = test system: Mus musculus; test: Reduction in blood glucose concentration in male Kunming mouse at 20 mg/kg, IG preadministered for 40 mins followed by saccharose addition and measured after 30 mins by sucrose loading test; assay type: functional, organism-based; details: time 70.0 min
[20] = biological target: T1, Alpha-glucosidase (Saccharomyces cerevisiae S288c); test: Inhibition of alpha-glucosidase (unknown origin) assessed as effect on secondary structure by measuring beta-sheet content at 5 uM by CD spectra (reference value: 18.1 %); assay type: protein assay; design: scale not given: the % may be the effect or the level left
[21] = biological target: T1, Alpha-glucosidase (Saccharomyces cerevisiae S288c); test: Inhibition of alpha-glucosidase (unknown origin) assessed as effect on secondary structure by measuring random coil content at 30 uM by CD spectra (reference value: 33.1 %); assay type: protein assay; design: scale not given: the % may be the effect or the level left; details: Homo sapiens
[22] = biological target: T1, Alpha-glucosidase (Saccharomyces cerevisiae S288c); test: Inhibition of alpha-glucosidase (unknown origin) assessed as effect on secondary structure by measuring reduction in alpha-helix content at 5 uM by CD spectra (reference value: 32.1 %); assay type: protein assay; design: scale not given: the % may be the effect or the level left; details: Homo sapiens
[23] = Cytotoxicity against HEK293 cells assessed as cell viability at 60 uM incubated for 1 day by MTT assay relative to control; assay type: toxicity, cell-based; details: human, read-out: Activity
[24] = biological target: T1, Alpha-glucosidase (Saccharomyces cerevisiae S288c); test: Inhibition of alpha-glucosidase (unknown origin) assessed as effect on secondary structure by measuring reduction in alpha-helix content at 20 uM by CD spectra (reference value: 32.1 %); assay type: protein assay; design: scale not given: the % may be the effect or the level left; details: Homo sapiens
[25] = biological target: T1, Alpha-glucosidase (Saccharomyces cerevisiae S288c); test: Inhibition of alpha-glucosidase (unknown origin) assessed as effect on secondary structure by measuring beta-turn content at 5 uM by CD spectra (reference value: 17.1 %); assay type: protein assay; design: scale not given: the % may be the effect or the level left; details: Homo sapiens
[26] = biological target: T1, Alpha-glucosidase (Saccharomyces cerevisiae S288c); test: Inhibition of alpha-glucosidase (unknown origin) assessed as effect on secondary structure by measuring beta-turn content at 30 uM by CD spectra (reference value: 17.1 %); assay type: protein assay; design: scale not given: the % may be the effect or the level left
[27] = biological target: T2, Alpha-amylase; test: Inhibition of hog pancreatic alpha-amylase using soluble starch as substrate assessed as inhibition constant of free alpha-amylase preincubated for 10 mins followed by substrate addition and measured after 15 mins by Lineweaver-Burk plot analysis
[28] = biological target: T2, Alpha-amylase; test: Inhibition of hog pancreatic alpha-amylase using soluble starch as substrate assessed as inhibition constant of enzyme-substrate complex preincubated for 10 mins followed by substrate addition and measured after 15 mins by Lineweaver-Burk plot analysis
[29] = biological target: T3, Alpha-glucosidase; test: Inhibition of Saccharomyces cerevisiae alpha-glucosidase using p-nitrophenyl-alpha-D-glucopyranoside as substrate assessed as inhibition constant of free alpha-glucosidase incubated for 7 mins by spectrophotometer based Lineweaver-Burk plot analysis; assay type: protein assay
[30] = biological target: Alpha amylase (Homo sapiens) (UniProt P0DUB6); test: Inhibition of alpha-amylase (unknown origin) assessed as increase in enzyme particle thickness at 50 uM incubated for 30 mins by AFM imaging analysis; assay type: protein assay
Sequence of Alpha amylase (Homo sapiens) (P0DUB6 whole entry, looked up): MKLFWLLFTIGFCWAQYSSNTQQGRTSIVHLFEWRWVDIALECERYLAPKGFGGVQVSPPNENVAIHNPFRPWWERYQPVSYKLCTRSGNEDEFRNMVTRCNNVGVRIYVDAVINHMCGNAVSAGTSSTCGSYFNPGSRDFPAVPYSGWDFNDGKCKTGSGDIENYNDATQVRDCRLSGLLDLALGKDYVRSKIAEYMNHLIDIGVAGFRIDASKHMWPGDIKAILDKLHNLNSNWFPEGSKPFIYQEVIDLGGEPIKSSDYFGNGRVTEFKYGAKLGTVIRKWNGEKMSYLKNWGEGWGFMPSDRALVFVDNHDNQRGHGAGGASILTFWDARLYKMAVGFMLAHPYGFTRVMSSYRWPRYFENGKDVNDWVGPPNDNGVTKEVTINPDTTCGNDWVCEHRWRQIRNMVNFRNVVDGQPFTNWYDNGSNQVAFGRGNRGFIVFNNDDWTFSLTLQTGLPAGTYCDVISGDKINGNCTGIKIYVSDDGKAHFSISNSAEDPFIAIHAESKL

[31] = biological target: Alpha amylase (Homo sapiens) (UniProt P0DUB6); test: Inhibition of alpha-amylase (unknown origin) assessed as increase in enzyme particle size at 50 uM incubated for 30 mins by AFM imaging analysis; assay type: protein assay
[32] = biological target: T4, Alpha-amylase (Sus scrofa domesticus) (UniProt Q7M328); test: Mixed-type inhibition of hog pancreatic alpha-amylase using soluble starch as substrate upto 35 uM preincubated for 10 mins followed by substrate addition and measured after 15 mins by Lineweaver-Burk plot analysis; details: time 25.0 min
T4 sequence (whole entry): T2 sequence (Q7M328 whole entry)

SMILES: O=C(CSc1nnc(CCn2c3ccccc3c3ccccc32)o1)Nc1ccc(Cl)cc1[N+](=O)[O-]
- IC50 [5]: 89.7 µM
- IC50 [13]: 37.96 µM

SMILES: O=C(CSc1nnc(CCn2c3ccccc3c3ccccc32)o1)Nc1ccc(Oc2ccccc2)cc1
- IC50 [5]: 74.8 µM
- IC50 [13]: 39.52 µM

SMILES: O=C(CSc1nnc(CCn2c3ccccc3c3ccccc32)o1)Nc1ccc(Cl)cc1
- IC50 [5]: 83.2 µM
- IC50 [13]: 22.07 µM

SMILES: O=C(CSc1nnc(CCn2c3ccccc3c3ccccc32)o1)Nc1ccccc1
- IC50 [5]: 56.2 µM
- IC50 [13]: 43.26 µM

Continued by falling IC50 [5], values first:

- IC50 [5]: 81.2 µM
- IC50 [13]: 66.89 µM
SMILES: Cc1cccc(NC(=O)CSc2nnc(CCn3c4ccccc4c4ccccc43)o2)c1

- Activity [1]: 22.9%
- Activity [2]: 36.1%
- inhibition [3]: Active
- Activity [4]: 22.4%
- IC50 [5]: 61.5 µM
- inhibition [6]: Active
- Activity [7]: 35.3%
- Ki [8]: 13.19 µM
- Activity [9]: 20.3%
- Activity [10]: 28.5%
- inhibition [11]: Active
- Activity [12]: 17.8%
- IC50 [13]: 21.39 µM
- Activity [14]: 18.4%
- Activity [15]: 25.1%
- Activity [16]: 38.1%
- Activity [20]: 20%
- Activity [21]: 38.8%
- Activity [22]: 28.9%
- Activity [24]: 25.7%
- Activity [25]: 17.7%
- Activity [26]: 18.5%
SMILES: CCOc1ccc(NC(=O)CSc2nnc(CCn3c4ccccc4c4ccccc43)o2)cc1
- IC50 at 1 day [17]: 193 µM
- Activity [18]: 11.74%
- Activity [19]: Active
- viability at 24 h, 60 µM [23]: 96.1%

- IC50 [5]: 54.6 µM
- IC50 [13]: 67.35 µM
SMILES: Cc1ccc(NC(=O)CSc2nnc(CCn3c4ccccc4c4ccccc43)o2)c([N+](=O)[O-])c1

- IC50 [5]: 45.5 µM
- Ki [27]: 45.1 µM
- Ki [28]: 63.3 µM
- Ki [29]: 22.04 µM
- IC50 [13]: 27.73 µM
- inhibition [30]: Active
- inhibition [31]: Active
- inhibition [32]: Active
SMILES: O=C(CSc1nnc(CCn2c3ccccc3c3ccccc32)o1)Nc1ccc(F)cc1
- IC50 at 1 day [17]: 181 µM
- Activity [18]: 10.66%
- Activity [19]: Active
- viability at 24 h, 60 µM [23]: 90.3%
